Holding throughout (assay type): in vivo
In assay [1] the test system is blood brain barrier (BBB). As to the kind of experiment: BBB leakage in brain of DM/HC pig model (IHC for pig immunoglobulin). Conditions: DM/HC pigs. Here is the method: (§1) Animal model: A diabetic/diabetic hypercholestrolemic pig model (DM/HC) was developed that mimics human-like atherosclerosis. Farm pigs weighing 25-30 kg and aged ∼4 months were made diabetic with a single intravenous injection of 125 mg/kg of streptozotocin (Sicor Pharmaceuticals, Irvine, CA). After stabilization for 1-2 weeks, the animals with elevated levels of plasma glucose (>150 mg/dl) were fed with atherogenic (high-fat) diet as shown in Table 1 (Animal Specialties, Quakertown, PA) to achieve a cholesterol level of approximately 250-800 mg/dl. Table 1. Diet for 2.0% cholesterol diet the components are:
(§2) At one month after stabilization of choleresterol at 250-800mg/dl, the animals were randomized into two experimental groups, DM/HC (hyperglycemia and hypercholesterolemia) group with no treatment and treatment group (10 mg/kg/day of SB-480848, also referred to as 1-(N-(2-(diethylamino)ethyl)-N-(4-(4-trifluoromethylphenyl)benzyl)-aminocarbonylmethyl)-2-(4-fluorobenzyl)thio-5,6-trimethylenepyrimidin-4-one). The animals were sacrificed at 6-month after the randomization. The animal protocol has been approved by the Institutional Animal Care and Use Committee of University of Pennsylvania.
(§3) Two diabetic/hypercholesterolemic groups were evaluated: 1. DM/HC group and 2. DM/HC animals receiving Lp-PLA2 inhibitors. The experiments included: the control group (DM/HC group - 17 pigs) and the experimental group (DM/HC animals receiving LP-PLA2 inhibitors - 20 pigs). In addition blood cholesterol levels were maintained between 300 and 800 mg/dl in experimental animals, this range having been determined to provide a better test model. Blood cholesterol levels were monitored in all animals on a bimonthly basis, as shown in Table 4 and adjustments were made to the fat content of the feed accordingly, as shown in Table 2. The cholesterol and lard percent were in the range of 0.5-2% and 10-25%, respectively, and all animals received feed that contained cholesterol and lard concentration within that range. Blood samples were obtained at baseline, 1 month, 3 months, and 6 months. Less than 1 ml/kg of blood were obtained each time. At the bimonthly blood cholesterol levels tests, levels of total cholesterol, LDL, HDL, VLDL and triglycerides, blood glucose, Lp-PLA2 and […] (PBMCs) were tested (see Table 4).
(§4) Daily dosing began on Day 29, at which time each test animal was given a daily dose of 10 mg/kg SB-480848 (given as bolus equivalent in dog food). Animals were NPO from midnight the night before. Animals were euthanized on Day 196 and tissues harvested immediately.
(§5) Brain tissue preparation. The entire brain was removed within one hour after animals were euthanized. The right hemisphere was fixed in 10% formalin for at least one week. […]

Assay [2] deals with Abeta-42. As to the kind of experiment: Abeta-42 accumulation in brain of DM/HC pig model (IHC). The note with it: DM/HC pigs. As to the method:
as §1, §2, §3, §4, §5

Assay [3] can be described thus: Body weight and behaviour observed during the study in DM/HC pig model. The note with it: DM/HC pigs. Here is the method:
as §1, §2, §3
Domestic farm pigs, Yorkshire boars, ranging in weight between 25-35 kg were purchased from a local farm and placed in indoor housing under the care of a veterinarian. They were castrated 3-5 days in advance of the study start date. Test pigs were made diabetic by infusing one dose of streptozocin (125 mg/kg) IV in a period of 30 min. […] The blood glucose was measured using a glucometer every day before feeding for the first 14 days and then once a week. […]

Assay [4] relates to glial cells. Put plainly: Glial cell (astrocyte) activation in brain of DM/HC pig model (GFAP IHC). Conditions: DM/HC pigs treated with Lp-PLA2 inhibitor, vs non-treated. Here is the method: as §1, with “are: […]” for “are:”
Two diabetic/hypercholesterolemic groups were evaluated: 1. […] In addition blood cholesterol levels were maintained between 300 and 800 mg/dl in experimental animals, this range having been determined to provide a better test model. Blood cholesterol levels were monitored in all animals on a bimonthly basis, as shown in Table 4 and adjustments were made to the fat content of the feed accordingly, as shown in Table 2. […]

The mark [5] stands for this setting: 10 mg/kg/day SB-480848, n=6, vs DM/HC no treatment, 10 mg/kg/day.
Where [6] appears, read: 10 mg/kg/day SB-480848, vs DM/HC no treatment.
The mark [7] stands for this setting: during the study period, compared to control non-treated animals.

SMILES strings stand for the structures. “Also recorded” adds a separate entry of the source.

On to `CCN(CC)CCN(Cc1ccc(-c2ccc(C(F)(F)F)cc2)cc1)C(=O)Cn1c(SCc2ccc(F)cc2)nc(=O)c2c1CCC2` [Lp-PLA2 inhibitor, 1-(N-(2-(diethylamino)ethyl)-N-(4-(4-trifluoromethylphenyl)benzyl)-aminocarbonylmethyl)-2-(4-fluorobenzyl)thio-5,6-trimethylenepyrimidin-4-one], for which the BBB leakage entry in assay [1] (setting [5]) is given as “prevents BBB leakage; also recorded: negligible”. In assay [1] (setting [6]), the “Ig binding to neurons” value is recorded as “no Ig binding to neurons”, the “Ig leakage from blood vessels” value was “no Ig leakage from blood vessels” and the dendrite collapse result was “no dendrite collapse”. Also, in assay [2] (10 mg/kg/day SB-480848, compared with non-treated animals), the sick neurons entry is reported as “rarely observed”. In assay [2] (setting [5]), the “neuronal Abeta-42 immunoreactivity” value is on record as “prevents Abeta-42 accumulation in neurons; also recorded: no neuronal Abeta-42 immunoreactivity”. The “Abeta42 accumulation in vascular SMCs” value in assay [2] (setting [6]) was “prevented Abeta42 accumulation in vascular SMCs”. Moreover, the “cerebrovascular amyloidosis (arterial Abeta-42 immunostaining)” value in assay [2] (10 mg/kg/day SB-480848, vs DM/HC no treatment, 10 mg/kg/day) is “little or no arterial Abeta-42 immunostaining; also recorded: minimized cerebrovascular amyloidosis”. For the same compound, the weight in assay [3] (10 mg/kg/day SB-480848, end of study, from a baseline of 26.9 kg, control animals 50.9 kg (baseline 30.3 kg)) turned out to be 62.5 kg. In addition, in assay [3] (setting [7]), the “activity in the cage” value is reported as “increased activity in the cage”; the “response to feeding and handling” value is “tended to respond more alertly to feeding and handling”; the “responsiveness to external stimuli” value is “more responsive to external stimuli”. Also, the “activation of glial cells” value in assay [4] was “less activation of glial cells”.

The record behind these values is EP2977452A2, “METHODS OF TREATMENT AND PREVENTION OF NEURODEGENERATIVE DISEASES AND DISORDERS” (THOMAS JEFFERSON UNIVERSITY, priority 2007, dated 2008).
